Reference: US5053070A, “Pyrimidine derivatives, preparation processes thereof, herbicide containing the same, and herbicidal compositions containing the same along with other active ingredient” (Mitsui Toatsu Chemicals, Incorporated, priority 1988, dated 1991)
Read-outs that look alike come from different tables or passages of the source.

Columns and labels:
Assay type in all cases: in vivo
[1] = system: johnsongrass; test: Upland foliar application test by mixed formulations, concentration gradient (Test 8)
Procedure: (§1) Resin-made 1/10,000-are pots were filled with the soil of an upland field. Redroot pigweed and johnsongrass were separately seeded and were allowed to germinate in a green house. When each plant grew to the stage of 2-3 leaves, emulsions formulated with concentration gradient from predetermined amounts of two test compounds of different kinds in a similar manner to the method described in Formulation Example 16 was diluted with water to a predetermined dilution rate and then sprayed at an application rate equal to 5 l per are onto the foliage of each plant by means of a pressure-operated ULV (ultra low volume) sprayer. Influence to the weeds were observed on the 40th day after the spray of the herbicides. The results are shown in Table 9, In the table, Ea have the same meanings as in Test 7, and Ea>Ec indicates the existence of synergistic action while Ea<Ec indicates the existence of antagonistic action.

[2] = system: redroot pigweed; test: as above
Procedure: as §1

[3] = system: green foxtail; test: Upland foliar application test by mixed formulations (Test 7); details: Setaria viridis, 720 h, read-out: Herbicidal effects (%) Green foxtail Ea
Procedure: (§2) Resin-made 1/10,000-are pots were filled with the soil of an upland field. Redroot pigweed, morningglories, johnsongrass, barnyardgrass and green foxtail were separately seeded and were allowed to germinate in a green house. When each plant grew to the stage of 2-3 leaves, an emulsion formulated from predetermined amounts of two test compounds of different kinds in a similar manner to the method described in Formulation Example 16 was diluted with water to a predetermined dilution rate and then sprayed at an application rate equal to 5 l per are onto the foliage of each plant by means of a pressure-operated ULV (ultra low volume) sprayer. Influence to the weeds were observed on the 30th day after the spray of the herbicides. In the table, each Ea means an acutally measured value of herbicidal activities when two kinds of herbicides were mixed. Each Ec is an expected value for herbicidal activities, calculated in accordance with the below-described calculation formula proposed by Colby et al. [Colby, S. R., Weed 15, 20-22 (1967)]. Ea>Ec indicates the existence of synergistic action while […] action. [formula] Ec: Growth inhibition rate (%) expected when Ingredient I and Ingredient II are mixed.
(§3) Ex: Growth inhibition rate (%) when treated with Ingredient I alone.
(§4) Ey: Growth inhibition rate (%) when treated with Ingredient II alone.

[4] = system: redroot pigweed; test: as above; details: Amaranthus retroflexus, 720 h, read-out: Herbicidal effects (%) Redrood pigweed Ea
Procedure: as §2, §3, §4

[5] = system: johnsongrass; test: as above; details: Sorghum halepense, 720 h; for pest or weed control at 1000 g/ha: read-out: Herbicidal effects (%) Johnsongrass Ea, applied alone, 1 kg/ha, foliar, 30th day; for pest or weed control at 300 g/ha: read-out: Herbicidal effects (%) Johnsongrass Ea, applied alone, 0.3 kg/ha, foliar, 30th day
Procedure: as §2, §3, §4

[6] = system: morningglories; test: as above; details: Ipomoea, 720 h, read-out: Herbicidal effects (%) Morningglory Ea
Procedure: as §2, §3, §4

[7] = system: barnyardgrass; test: as above; details: Echinochloa crus-galli, 720 h, read-out: Herbicidal effects (%) Barnyardgrass Ea
Procedure: as §2, §3, §4

[8] = Sorghum halepense, 960 h, applied alone, 2 g/a, 40th day, read-out: Herbicidal effects Johnsongrass Ea
[9] = Sorghum halepense, 960 h, applied alone, 4 g/a, 40th day, read-out: Herbicidal effects Johnsongrass Ea
[10] = Sorghum halepense, 960 h, applied alone, 8 g/a, 40th day, read-out: Herbicidal effects Johnsongrass Ea
[11] = Amaranthus retroflexus, 960 h, applied alone, 2 g/a, 40th day, read-out: Herbicidal effects Redrood pigweed Ea
[12] = Amaranthus retroflexus, 960 h, applied alone, 4 g/a, 40th day, read-out: Herbicidal effects Redrood pigweed Ea
[13] = Amaranthus retroflexus, 960 h, applied alone, 8 g/a, 40th day, read-out: Herbicidal effects Redrood pigweed Ea
[14] = read-out: Herbicidal effects (%) Johnsongrass Ea, applied alone, 0.5 kg/ha, foliar, 30th day
[15] = Sorghum halepense, 960 h, read-out: Herbicidal effects Johnsongrass Ea
[16] = Amaranthus retroflexus, 960 h, read-out: Herbicidal effects Redrood pigweed Ea
[17] = applied alone, 0.2 kg/ha, 30th day
[18] = applied alone, 0.3 kg/ha, 30th day

CC(C)c1ccc(NC(=O)N(C)C)cc1 [Isoproturon, 3-(4-isopropylphenyl)-1,1-dimethylurea]
pest or weed control at 200 g/ha [1, 8]: 0% | pest or weed control at 400 g/ha [1, 9]: 10% | pest or weed control at 800 g/ha [1, 10]: 20% | pest or weed control at 200 g/ha [2, 11]: 10% | pest or weed control at 400 g/ha [2, 12]: 20% | pest or weed control at 800 g/ha [2, 13]: 40%

CCc1cccc(C)c1N(C(=O)CCl)C(C)COC (stereo not shown) [metolachlor, 2-chloro-2'-ethyl-6'-methyl-N-(2-methoxy-1-methylethyl)acetanilide, reference compound]
pest or weed control at 1000 g/ha [3]: 10% | pest or weed control at 1000 g/ha [4]: 40%

CC(C)N1C(=O)c2ccccc2NS1(=O)=O [bentazon, 3-isopropyl-(1H)-2,1,3-benzothiadiazin-4-(3H)-one-2,2-dioxide]
pest or weed control at 500 g/ha ([5]; applied alone, 0.5 kg/ha, 30th day, read-out: Herbicidal effects (%) Johnsongrass Ea): 0% | pest or weed control at 500 g/ha ([4]; applied alone, 0.5 kg/ha, 30th day): 40% | pest or weed control at 200 g/ha [1, 8]: 0% | pest or weed control at 400 g/ha [1, 9]: 0% | pest or weed control at 800 g/ha [1, 10]: 20% | pest or weed control at 200 g/ha [2, 11]: 30% | pest or weed control at 400 g/ha [2, 12]: 40% | pest or weed control at 800 g/ha [2, 13]: 70%

CN(C)C(=O)Nc1cccc(C(F)(F)F)c1 [fluometuron, 1,1-dimethyl-3-(3-trifluoromethylphenyl)urea]
pest or weed control at 500 g/ha [5, 14]: 30% | pest or weed control at 500 g/ha [4]: 30% | pest or weed control at 200 g/ha [1, 15]: 0% | pest or weed control at 400 g/ha [1, 15]: 10% | pest or weed control at 800 g/ha [1, 15]: 20% | pest or weed control at 200 g/ha [2, 16]: 20% | pest or weed control at 400 g/ha [2, 16]: 30% | pest or weed control at 800 g/ha [2, 16]: 50%

CCNc1nc(Cl)nc(NC(C)(C)C#N)n1 [cyanazine, 2-(2-chloro-4-ethylamino-1,3,5-triazine-6-ylamino)-2-methylpropionitrile]
pest or weed control at 1000 g/ha [5]: 10% | pest or weed control at 1000 g/ha [4]: 40% | pest or weed control at 400 g/ha [1, 15]: 0% | pest or weed control at 800 g/ha [1, 15]: 10% | pest or weed control at 1600 g/ha [1, 15]: 20% | pest or weed control at 400 g/ha [2, 16]: 10% | pest or weed control at 800 g/ha [2, 16]: 30% | pest or weed control at 1600 g/ha [2, 16]: 50%

CCCC(C)C(=O)Nc1ccc(C(C)C)c(Cl)c1 (stereo not shown) [MT-5950, N-(3-chloro-4-isopropylphenyl)-2-methylpentamide]
pest or weed control at 200 g/ha [1, 8]: 10% | pest or weed control at 400 g/ha [1, 9]: 10% | pest or weed control at 800 g/ha [1, 10]: 20% | pest or weed control at 200 g/ha [2, 11]: 30% | pest or weed control at 400 g/ha [2, 12]: 70% | pest or weed control at 800 g/ha [2, 13]: 85%

CSc1nnc(C(C)(C)C)c(=O)n1N [metribuzin, 4-amino-6-tert-butyl-3-methylthio-1,2,4-triazin-5(4H)-one, reference compound]
pest or weed control at 200 g/ha [3, 17]: 10% | pest or weed control at 200 g/ha [4, 17]: 30%

CN(C)C(=O)Nc1ccc(Cl)c(Cl)c1 [diuron, 3-(3,4-dichlorophenyl)-1,1-dimethylurea]
pest or weed control at 300 g/ha [5]: 10% | pest or weed control at 300 g/ha [4]: 40% | pest or weed control at 200 g/ha [1, 15]: 0% | pest or weed control at 400 g/ha [1, 15]: 10% | pest or weed control at 800 g/ha [1, 15]: 20% | pest or weed control at 200 g/ha [2, 16]: 30% | pest or weed control at 400 g/ha [2, 16]: 70% | pest or weed control at 800 g/ha [2, 16]: 85%

CSc1nc(NC(C)C)nc(NC(C)C)n1 [prometryn, 2-methylthio-4,6-bis(isopropylamino)-1,3,5-triazine]
pest or weed control at 500 g/ha [5, 14]: 20% | pest or weed control at 500 g/ha [6]: 30% | pest or weed control at 200 g/ha [1, 15]: 0% | pest or weed control at 400 g/ha [1, 15]: 10% | pest or weed control at 800 g/ha [1, 15]: 20% | pest or weed control at 200 g/ha [2, 16]: 10% | pest or weed control at 400 g/ha [2, 16]: 20% | pest or weed control at 800 g/ha [2, 16]: 40%

O=C(O)c1cc(Oc2ccc(C(F)(F)F)cc2Cl)ccc1[N+](=O)[O-] [blazer, reference compound]
pest or weed control at 300 g/ha [7, 18]: 100% | pest or weed control at 300 g/ha [3, 18]: 40% | pest or weed control at 300 g/ha [6, 18]: 100% | pest or weed control at 300 g/ha [4, 18]: 100%

CCC(=O)Nc1ccc(Cl)c(Cl)c1 [propanil, N-(3,4-dichlorophenyl)propanamide]
pest or weed control at 3000 g/ha [7]: 40% | pest or weed control at 3000 g/ha ([5]; read-out: Herbicidal effects (%) Johnsongrass Ea, applied alone, 3 kg/ha, foliar, 30th day): 10% | pest or weed control at 2000 g/ha [1, 15]: 20% | pest or weed control at 4000 g/ha [1, 15]: 30% | pest or weed control at 8000 g/ha [1, 15]: 50% | pest or weed control at 2000 g/ha [2, 16]: 30% | pest or weed control at 4000 g/ha [2, 16]: 70% | pest or weed control at 8000 g/ha [2, 16]: 70%

CCNc1nc(Cl)nc(NC(C)C)n1 [atrazine, 2-chloro-4-ethylamino-6-isopropylamino-1,3,5-triazine]
pest or weed control at 800 g/ha ([5]; read-out: Herbicidal effects (%) Johnsongrass Ea, applied alone, 0.8 kg/ha, foliar, 30th day): 10% | pest or weed control at 800 g/ha [4]: 40% | pest or weed control at 200 g/ha [1, 15]: 0% | pest or weed control at 400 g/ha [1, 15]: 10% | pest or weed control at 800 g/ha [1, 15]: 10% | pest or weed control at 200 g/ha [2, 16]: 10% | pest or weed control at 400 g/ha [2, 16]: 30% | pest or weed control at 800 g/ha [2, 16]: 40%

CCc1cccc(CC)c1N(COC)C(=O)CCl [alachlor, N-methoxymethyl-2',6'-diethyl-2-chloroacetanilide, reference compound]
pest or weed control at 1000 g/ha [5]: 30% | pest or weed control at 1000 g/ha [4]: 40%

CCC/C(=N\OCC)C1=C(O)CC(CC(C)SCC)CC1=O (stereo not shown) [sethoxydim, reference compound]
pest or weed control at 200 g/ha [7]: 0% | pest or weed control at 200 g/ha [3]: 100% | pest or weed control at 200 g/ha ([5]; read-out: Herbicidal effects (%) Johnsongrass Ea, applied alone, 0.2 kg/ha, foliar, 30th day): 95% | pest or weed control at 200 g/ha [6]: 0% | pest or weed control at 200 g/ha [4]: 0% | pest or weed control at 100 g/ha [1, 15]: 70% | pest or weed control at 200 g/ha [1, 15]: 85% | pest or weed control at 100 g/ha [2, 16]: 0% | pest or weed control at 200 g/ha [2, 16]: 0%

CON(C)C(=O)Nc1ccc(Cl)c(Cl)c1 [linuron, 3-(3,4-dichlorophenyl)-1-methoxy-1-methylurea]
pest or weed control at 300 g/ha [5]: 10% | pest or weed control at 300 g/ha [6]: 30% | pest or weed control at 200 g/ha [1, 15]: 0% | pest or weed control at 400 g/ha [1, 15]: 10% | pest or weed control at 800 g/ha [1, 15]: 20% | pest or weed control at 200 g/ha [2, 16]: 40% | pest or weed control at 400 g/ha [2, 16]: 70% | pest or weed control at 800 g/ha [2, 16]: 85%

O=C(O)c1ccccc1C(=O)Nc1cccc2ccccc12 [naptalam, 2-(1-naphthalenylaminocarbonyl)benzoic acid]
pest or weed control at 1000 g/ha [5]: 10% | pest or weed control at 1000 g/ha [4]: 10% | pest or weed control at 400 g/ha [1, 15]: 0% | pest or weed control at 800 g/ha [1, 15]: 10% | pest or weed control at 1600 g/ha [1, 15]: 20% | pest or weed control at 400 g/ha [2, 16]: 0% | pest or weed control at 800 g/ha [2, 16]: 10% | pest or weed control at 1600 g/ha [2, 16]: 20%

2-methylthio-4-methylamino-6-isopropylamino-1,3,5-triazine [Ametryn]
Herbicidal effects Johnsongrass Ea ([1]; applied alone, 2 g/a, 40th day): 0% | Herbicidal effects Johnsongrass Ea ([1]; applied alone, 4 g/a, 40th day): 10% | Herbicidal effects Johnsongrass Ea ([1]; applied alone, 8 g/a, 40th day): 20% | Herbicidal effects Redrood pigweed Ea ([2]; applied alone, 2 g/a, 40th day): 10% | Herbicidal effects Redrood pigweed Ea ([2]; applied alone, 4 g/a, 40th day): 20% | Herbicidal effects Redrood pigweed Ea ([2]; applied alone, 8 g/a, 40th day): 30%
